Patent publication US8119686B2, “Spiroquinone compound and pharmaceutical composition” (Hykes Laboratories LLC, priority 2006, dated 2012)

Key:
Format in all cases: cell-based, human
ABCA1 = assay: Increase of ABCA1 in THP-1 cell (membrane fraction, SDS-PAGE and immunoblotting); conditions: PMA-differentiated THP-1 macrophages, 24 h culture with compound; relative to cells treated with probucol spiroquinone (=100)
Procedure: THP-1 cells (human leukemia cell; manufactured by American Type Culture Collection) were cultured for 24 hours in 10% FBS-RPMI1640 culture medium (manufactured by Sigma) in the presence of PMA (phorbol myristate acetate; 3.2×10^−7 M; manufactured by Wako Pure Chemical Industries, Ltd.) to obtain differentiated macrophages. The resulting cells were washed with RPMI1640 (manufactured by Sigma) and then added to RPMI1640 culture medium (manufactured by Sigma) with BSA (manufactured by Sigma) having a concentration of 0.2%. The spiroquinone derivatives obtained in Examples 1, 6 and 10 was independently added to the culture medium. Each sample was cultured for 24 hours in the presence or absence of apoAI, and then the ABCA1 expression in the cells was assayed in accordance with the following method. Incidentally, the spiroquinone derivative was dissolved in 2-butabol, and the solution was added to the culture medium so that the final concentration of the spiroquinone derivative was 0.5%.
The cells were washed with PBS (phosphate buffered saline; manufactured by Sigma). The washed cells were collected in 0.5 mM Tris-HCl (pH 8.5) containing a protease inhibitor (manufactured by Sigma), stirred, and allowed to stand on ice for 15 minutes. The resulting cell suspension was centrifuged at 470×g for 5 minutes to precipitate nuclear fractions. Thereafter, the supernatant was centrifuged at 316,000×g for 30 minutes to precipitate membrane fractions. The membrane fractions (15 μg protein) were used to conduct SDS-PAGE and Immunoblotting. The obtained band of the ABCA1 protein was converted into digital data by using an image analysis software (manufactured by […], Photoshop). The relative ratio (%) of the ABCA1 expression level of the cells treated with the spiroquinone derivative to that of the cells treated with probucol spiroquinone was calculated to evaluate the ABCA1 expression activity of the test compounds.

THP-1 cells = assay: Acceleration of HDL production reaction (apoA-I-dependent cholesterol release into culture medium); conditions: for apoA-1-dependent HDL cholesterol release, increase as compared with probucol spiroquinone: THP-1 cells, fold versus cells treated with probucol spiroquinone; for HDL cholesterol release (relative ratio %): THP-1 macrophages, culture medium after 24 h culture, apoA-I-dependent, relative to cells treated with probucol spiroquinone (=100)
Procedure: The culture medium after 24-hour culture in the presence or absence of apoAI in Test Example 1 was used to examine cholesterol release into the culture medium by the apoA-1-dependent HDL-generating reaction.
Specifically, the culture medium was collected in a 1.5 ml tube and centrifuged at 316,000×g for 5 minutes, and the supernatant was transferred in a glass tube. To the supernatant was added a mixture of chloroform and methanol (volume ratio=2/1) (manufactured by Wako Pure Chemical Industries, Ltd.). The resulting mixture was stirred and further centrifuged at 1,300×g for 5 minutes. After the centrifugation, the resulting water layer was removed. Water was added to the remaining organic layer, and the mixture was stirred again and centrifuged at 1,300×g for 5 minutes. After the centrifugation, the resulting water layer was removed. The organic layer was evaporated to dryness, and cholesterol remaining in the glass tube was quantitatively determined according to an enzymatic method. The relative ratio (%) of the amount of cholesterol release as HDL from the cells treated with the spiroquinone derivative to that from the cells treated with probucol spiroquinone was calculated to evaluate the HDL cholesterol release from the cells treated with the test compounds.

ABCA1 mRNA = assay: mRNA expression of intracellular ABCA1 (Real Time PCR); conditions: for mRNA Expression level of ABCA1 (relative ratio %): THP-1 macrophages, standardized to GAPDH mRNA, relative to untreated cells (=100)
Procedure: The cells washed with PBS in Test Example 1 were used. From the cells, RNA was extracted with ISOGEN (manufactured by Wako Pure Chemical Industries, Ltd.). By using a Super Script First-Strand Synthesis System for RT-PCR (manufactured by Invitrogen) cDNA was prepared, and the mRNA expression of ABCA1 was assayed by Real Time PCR using ABCA1 specific primer and Power SYBR Green PCR Master Mix (manufactured by Applied Biosystems).
Moreover, the mRNA expression of GAPDH as an internal control was also assayed simultaneously. The mRNA expression level of ABCA1 was standardized as a ratio (%) relative to the mRNA expression level of GAPDH. The mRNA expression level of ABCA1 in the cells treated with the test compound relative to that in untreated cells was calculated and evaluated.

SMILES	ABCA1 expression level (relative ratio %) (ABCA1) [%]	apoA-1-dependent HDL cholesterol release, increase as compared with probucol spiroquinone (THP-1 cells)	HDL cholesterol release (relative ratio %) (THP-1 cells) [%]	mRNA expression of ABCA1 in treated THP-1 cells (in words) (ABCA1 mRNA; THP-1 cells)	mRNA Expression level of ABCA1 (relative ratio %) (ABCA1 mRNA) [%]
CC1(CCC(=O)O)SC2(C=C(C(C)(C)C)C(=O)C(C(C)(C)C)=C2)C2(C=C(C(C)(C)C)C(=O)C(C(C)(C)C)=C2)S1 [Example 1, 14-carboxyethyl-14-methyl-2,4,9,11-tetrakis(t-butyl)-13,15-dithiadispiro[5.0.5.3]pentadeca-1,4,8,11-tetraene-3,10-dione]	238	–	–	–	–
CCCC1(C)SC2(C=C(C(C)(C)C)C(=O)C(C(C)(C)C)=C2)C2(C=C(C(C)(C)C)C(=O)C(C(C)(C)C)=C2)S1 [Example 6, 14-methyl-2,4,9,11-tetrakis(t-butyl)-14-n-propyl-13,15-dithiadispiro[5.0.5.3]pentadeca-1,4,8,11-tetraene-3,10-dione]	176	about 1.3 times	134	not found	51
CC(C)(C)C1=CC2(C=C(C(C)(C)C)C1=O)SC1(CCCC1)SC21C=C(C(C)(C)C)C(=O)C(C(C)(C)C)=C1 [Example 10, 9,11,15,17-tetrakis(t-butyl)-6,19-dithiadispiro[4.1.5^7.0.5^13.1^5]nonadeca-8,11,14,17-tetraene-10,16-dione]	309	about 1.3 times	128	–	–
CC1(C)SC2(C=C(C(C)(C)C)C(=O)C(C(C)(C)C)=C2)C2(C=C(C(C)(C)C)C(=O)C(C(C)(C)C)=C2)S1 [Probucol spiroquinone, reference compound]	100	–	100	–	65
